From ChEMBL document CHEMBL1131513, “SAR studies of diaryltriazoles against bacterial two-component regulatory systems and their antibacterial activities” (Bioorg Med Chem Lett, 1998)
In brackets after ≈: the same amount, converted by molar mass.

Legend:
Bacteria [1] = assay: Minimum inhibitory concentration for Gram-positive antibacterial activity by using standard MIC broth assay method; 0.25-1; assay type: functional
[2] = molecular target: T1, KinA/Spo0F (sporulation kinase A/sporulation initiation phosphotransferase F) (Bacillus subtilis (strain 168), UniProt P06628+P16497); assay: Ability to inhibit autophosphorylation of KinA/Sp0F assay; assay type: protein assay
T1 sequence (P06628 whole entry): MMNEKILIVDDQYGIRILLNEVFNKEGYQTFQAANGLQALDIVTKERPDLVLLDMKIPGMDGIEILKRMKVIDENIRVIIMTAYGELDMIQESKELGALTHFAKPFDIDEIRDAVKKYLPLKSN
T1 sequence (P16497 whole entry): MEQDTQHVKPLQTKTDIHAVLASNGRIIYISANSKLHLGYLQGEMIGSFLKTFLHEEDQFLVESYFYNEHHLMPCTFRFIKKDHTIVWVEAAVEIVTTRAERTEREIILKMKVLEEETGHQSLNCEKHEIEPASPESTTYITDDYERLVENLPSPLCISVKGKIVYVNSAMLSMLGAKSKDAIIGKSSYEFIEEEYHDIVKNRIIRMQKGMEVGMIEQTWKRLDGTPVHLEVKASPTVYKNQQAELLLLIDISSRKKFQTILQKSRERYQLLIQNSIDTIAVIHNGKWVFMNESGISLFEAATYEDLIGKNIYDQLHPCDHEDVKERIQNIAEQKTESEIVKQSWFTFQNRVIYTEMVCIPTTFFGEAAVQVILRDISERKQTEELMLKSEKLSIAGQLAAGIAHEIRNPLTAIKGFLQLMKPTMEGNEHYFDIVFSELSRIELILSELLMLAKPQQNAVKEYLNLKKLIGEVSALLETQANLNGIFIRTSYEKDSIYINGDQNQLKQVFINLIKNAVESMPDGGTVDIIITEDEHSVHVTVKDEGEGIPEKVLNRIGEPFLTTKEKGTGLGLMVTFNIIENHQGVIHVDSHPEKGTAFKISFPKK

Bacteria [3] = assay: Minimum inhibitory concentration for Gram-positive antibacterial activity by using standard MIC broth assay method; assay type: functional
Bacteria [4] = assay: Minimum inhibitory concentration for Gram-positive antibacterial activity by using standard MIC broth assay method; 4-8; assay type: functional
[5] = Ratio of NRII-NRI to KinA-Spo0F IC50s
[6] = (§1) Inhibition of NRII and/or NRI phosphorylation in Escherichia coli
Bacteria [7] = assay: Minimum inhibitory concentration for Gram-positive antibacterial activity by using standard MIC broth assay method; 0.5-1; assay type: functional
Bacteria [8] = assay: Minimum inhibitory concentration for Gram-positive antibacterial activity by using standard MIC broth assay method; 0.25-0.5; assay type: functional
Bacteria [9] = assay: Minimum inhibitory concentration for Gram-positive antibacterial activity by using standard MIC broth assay method; 0.5-2; assay type: functional
[10] = as §1; assay type: functional
Bacteria [11] = assay: Minimum inhibitory concentration for Gram-positive antibacterial activity by using standard MIC broth assay method; 8-16; assay type: functional
Bacteria [12] = assay: Minimum inhibitory concentration for Gram-positive antibacterial activity by using standard MIC broth assay method; 0.1-0.5; assay type: functional

Compound | IC50 [2] | Ratio [5] | also measured
Cc1ccc(-c2n[nH]c(-c3cc(Cl)cc(Cl)c3O)n2)cc1C | > 500 µM |  | MIC (Bacteria [4]): 4 µg/mL (≈ 12 µM)
Oc1c(Cl)cc(Cl)cc1-c1n[nH]c(-c2ccc(Cl)cc2)n1 | 80 µM | 0.71 | MIC (Bacteria [9]): 0.5 µg/mL (≈ 1.47 µM); IC50 [6]: 57 µM
Oc1c(Br)cc(Br)cc1-c1n[nH]c(-c2ccc(Oc3ccccc3)cc2)n1 | 100 µM | 0.75 | IC50 [6]: 75 µM
O=[N+]([O-])c1ccc(-c2nc(-c3cc(Cl)cc(Cl)c3O)n[nH]2)cc1 | > 500 µM |  | 
Oc1c(Cl)cc(Cl)cc1-c1n[nH]c(-c2ccccc2)n1 | 380 µM |  | 
O=C(Nc1ccc(Cl)c(Cl)c1)c1cc(Cl)cc(Cl)c1O [3,3',4',5-TETRACHLOROSALICYLANILIDE] | 37 µM |  | MIC (Bacteria [12]): 0.1 µg/mL (≈ 0.285 µM)
CC(C)c1ccc(-c2n[nH]c(-c3cc(Cl)cc(Cl)c3O)n2)cc1 | > 500 µM |  | 
COc1ccc(-c2n[nH]c(-c3cc(Cl)cc(Cl)c3O)n2)cc1 | > 500 µM |  | 

Now from value to compound, other results behind:

IC50 [2] | Ratio [5] | Compound | also measured
44 µM |  | Oc1c(-c2n[nH]c(-c3ccc(Cl)c(Cl)c3)n2)cc(C(F)(F)F)cc1C(F)(F)F | MIC (Bacteria [1]): 0.25 µg/mL (≈ 0.565 µM)
> 500 µM |  | Oc1ccc(Cl)cc1-c1n[nH]c(-c2ccc(Cl)c(Cl)c2)n1 | MIC (Bacteria [3]): > 32 µg/mL
87 µM | 1.5 | Oc1c(Cl)cc(Cl)cc1-c1n[nH]c(-c2cccc(Cl)c2)n1 | IC50 [6]: 130 µM; MIC (Bacteria [7]): 0.5 µg/mL (≈ 1.47 µM)
24 µM |  | Oc1c(Br)cc(Br)cc1-c1n[nH]c(-c2ccc(Cl)c(Cl)c2)n1 | MIC (Bacteria [8]): 0.25 µg/mL (≈ 0.539 µM)
16 µM | 4.1 | Oc1c(Cl)cc(Cl)cc1-c1n[nH]c(-c2ccc(Cl)c(C(F)(F)F)c2)n1 | MIC (Bacteria [1]): 0.25 µg/mL (≈ 0.612 µM); IC50 [6]: 65 µM
8 µM | 3.5 | O=[N+]([O-])c1cc(-c2n[nH]c(-c3ccc(Cl)c(Cl)c3)n2)c(O)c([N+](=O)[O-])c1 | IC50 [10]: 28 µM; MIC (Bacteria [3]): > 64 µg/mL
> 500 µM |  | CC(C)(C)c1cc(-c2n[nH]c(-c3ccc(Cl)c(Cl)c3)n2)c(O)c(C(C)(C)C)c1 | 
91 µM |  | NS(=O)(=O)c1ccc(O)c(-c2n[nH]c(-c3ccc(Cl)c(Cl)c3)n2)c1 | MIC (Bacteria [11]): 8 µg/mL (≈ 20.8 µM)
> 500 µM |  | Oc1c(Cl)cccc1-c1n[nH]c(-c2ccc(Cl)c(Cl)c2)n1 | 
67 µM | 2.2 | Oc1c(Cl)cc(Cl)cc1-c1n[nH]c(-c2ccc(Cl)c(Cl)c2)n1 | MIC (Bacteria [8]): 0.25 µg/mL (≈ 0.667 µM); IC50 [6]: 150 µM
